Values of other authors in patent publication EP1219700A1, “Cleaning compositions” (UNILEVER PLC, priority 2000, dated 2002).

Conditions: at 20°C; other common materials, by contrast

Row | Compound | Water Solubility (g/100g)
1 | O=P(O)(O)OP(=O)(O)OP(=O)(O)O [Sodium tripolyphosphate anhydrous] | 15
2 | O=BO[O-].[Na+] [Sodium perborate anhydrous] | 3.7
